Laboratory results reported in patent US9834558B2, “Substituted bridged urea analogs as sirtuin modulators” (GLAXOSMITHKLINE LLC, priority 2013, dated 2017).
Read-outs that look alike come from different tables or passages of the source.

Molecular target: T1, SIRT1 (Homo sapiens, UniProt Q96EB6)
T1 sequence (Q96EB6 1-747): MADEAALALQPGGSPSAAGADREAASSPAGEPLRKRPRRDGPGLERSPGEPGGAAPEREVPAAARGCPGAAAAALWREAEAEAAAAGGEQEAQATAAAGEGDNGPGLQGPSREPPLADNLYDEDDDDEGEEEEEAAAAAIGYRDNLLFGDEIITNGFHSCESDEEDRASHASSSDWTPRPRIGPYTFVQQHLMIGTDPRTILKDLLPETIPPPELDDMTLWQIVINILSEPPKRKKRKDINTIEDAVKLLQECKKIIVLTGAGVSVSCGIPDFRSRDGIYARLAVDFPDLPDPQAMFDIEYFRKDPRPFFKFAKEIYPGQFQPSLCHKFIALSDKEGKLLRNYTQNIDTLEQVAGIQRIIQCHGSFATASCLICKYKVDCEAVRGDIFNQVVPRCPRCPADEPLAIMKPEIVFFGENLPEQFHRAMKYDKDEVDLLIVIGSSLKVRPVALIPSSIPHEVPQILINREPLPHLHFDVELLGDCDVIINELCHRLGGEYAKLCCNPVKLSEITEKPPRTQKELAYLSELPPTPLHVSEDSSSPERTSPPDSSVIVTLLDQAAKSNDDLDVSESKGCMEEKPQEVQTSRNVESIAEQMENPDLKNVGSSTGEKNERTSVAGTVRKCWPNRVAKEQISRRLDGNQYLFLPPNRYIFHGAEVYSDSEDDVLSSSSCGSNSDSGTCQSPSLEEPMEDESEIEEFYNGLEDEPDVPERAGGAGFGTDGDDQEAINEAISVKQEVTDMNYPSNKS
Assay: Trp mass spectrometry assay of SIRT1 activation
Assay type: biochemical
Conditions: for TRP Activity (EC1.5): EC1.5 = concentration that results in 150% activation of SIRT1
In short: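 N-terminal His-tagged human SIRT1 (10 nM, E. coli BL21(DE3)) with 0.5 μM Ac-RHKK(Ac)W-NH2 peptide and 120 μM βNAD+, 25 min at 25 °C in HEPES pH 7.5, formic acid stop. OAADPR or deacetylated peptide quantified by mass spectrometry; EC1.5 (50% activity increase over control) and Percent Maximum Activation reported.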

[1] = Trp peptide assay, maximum activity relative to control (100%), read-out: TRP MAX RESP (percent maximum fold activation)
[2] = concentration giving 150% activation of SIRT1, Trp peptide substrate
[3] = Trp mass spectrometry assay, concentration of test compound giving 150% activation of SIRT1
[4] = Trp mass spectrometry assay, EC1.5 = concentration of test compound that results in 150% activation of SIRT1
[5] = Trp mass spectrometry assay, percent maximum fold activation of SIRT1, read-out: Tryp % Fold Act

Cc1cc(C)c(-c2ccc3c(n2)N(C(=O)Nc2cccnc2)[C@H]2CCN3C2)cn1 [(9S)-5-(4,6-dimethylpyridin-3-yl)-N-(pyridin-3-yl)-1,6,8-triazatricyclo[7.2.1.0 {2,7}]dodeca-2(7),3,5-triene-8-carboxamide]
TRP Activity (EC1.5) (Trp peptide assay): B (B (EC1.5 1-25 μM))
Emax [1]: > 150%

O=C(Nc1cccc(-c2cnco2)c1)N1c2nc(-c3cccc(C(F)(F)F)c3)ccc2N2CC[C@H]1C2 [68 (1)]
Tryp AVG EC1.5 (μM) (Trp peptide substrate, concentration giving 150% activation of SIRT1): A (A (EC1.5<1 μM))

NCc1cccc(NC(=O)N2c3nc(-c4cccc(C(F)(F)F)c4)ccc3N3CC[C@H]2C3)c1 [Example 755]
Tryp AVG EC1.5 (μM) [2]: B (B (EC1.5 1-25 μM))

O=C(Nc1cccc(-c2cnco2)c1)N1c2nc(-c3cccc(C(F)(F)F)c3)ccc2N2C[C@@H](O)[C@H]1C2 [Example 665]
Tryp AVG EC1.5 (μM) [2]: A (A (EC1.5<1 μM))

O=C(Nc1ccncn1)N1c2nc(-c3cncc(C(F)(F)F)c3)ccc2N2CCC[C@H]1C2 [Example 393]
Tryp AVG EC1.5 (μM) [3]: A (A (EC1.5<1 μM))

CS(=O)(=O)c1cncc(-c2ccc3c(n2)N(C(=O)Nc2ccccn2)[C@H]2CCCN3C2)c1 [Example 375]
Tryp AVG EC1.5 (μM) [3]: A (A (EC1.5<1 μM))

O=C(Nc1cccc(-c2cnco2)c1)N1c2nc(-c3cccc(C(F)(F)F)c3)ccc2N2CCC1CC2 [Example 473]
Tryp AVG EC1.5 (μM) [4]: A (A (EC1.5<1 μM))

O=C(Nc1ccc2c(c1)CCC2)N1c2nc(-c3cccc(C(F)(F)F)c3)ccc2N2CC[C@H]1C2 [Example 624]
Tryp AVG EC1.5 (μM) [4]: B (B (EC1.5 1-25 μM))

CS(=O)(=O)c1cncc(-c2ccc3c(n2)N(C(=O)Nc2cccnc2)[C@H]2CCCN3C2)c1 [Example 376]
Tryp AVG EC1.5 (μM) [3]: A (A (EC1.5<1 μM))

O=C(Nc1cnccn1)N1c2nc(-c3cncc(Cl)c3)ccc2N2CCC1CC2 [Example 550]
Tryp AVG EC1.5 (μM) [4]: B (B (EC1.5 1-25 μM))

N#Cc1ccccc1-c1ccc2c(n1)N(C(=O)Nc1ccncn1)[C@H]1CCCN2C1 [Example 451]
Tryp AVG EC1.5 (μM) [4]: B (B (EC1.5 1-25 μM))

N#Cc1ncc(-c2ccc3c(n2)N(C(=O)Nc2cnccn2)[C@H]2CCN3C2)cc1F [(9S)-5-(6-cyano-5-fluoropyridin-3-yl)-N-(pyrazin-2-yl)-1,6,8-triazatricyclo[7.2.1.0^2,7]dodeca-2(7),3,5-triene-8-carboxamide]
TRP Activity (EC1.5) (Trp peptide assay): C (C (EC1.5>25 μM))
Emax [1]: < 150%

Cc1nccn1CCCNC(=O)N1c2nc(-c3cccc(C(F)(F)F)c3)ccc2N2CC[C@H]1C2 [Example 632]
Tryp AVG EC1.5 (μM) [2]: C (C (EC1.5>25 μM))

O=C(Nc1ccncn1)N1c2nc(-c3cccc(C(F)(F)F)n3)ccc2N2CC[C@H]1C2 [Example 337]
Tryp AVG EC1.5 (μM) [3]: B (B (EC1.5 1-25 μM))

Cc1ccc(-c2ccc3c(n2)N(C(=O)Nc2ccncn2)[C@H]2CCCN3C2)cn1 [Example 479]
Tryp AVG EC1.5 (μM) [4]: B (B (EC1.5 1-25 μM))

O=C(NCCCc1cccnc1)N1c2nc(-c3cccc(C(F)(F)F)c3)ccc2N2CC[C@H]1C2 [Example 674]
Tryp AVG EC1.5 (μM) [2]: B (B (EC1.5 1-25 μM))

O=C(Nc1ccccn1)N1c2nc(-c3ccnc(N4CC[C@H](F)C4)c3)ccc2N2CC[C@H]1C2 [Example 422]
Tryp AVG EC1.5 (μM) [4]: A (A (EC1.5<1 μM))
Emax [5]: > 150%

COc1cc(NC(=O)N2c3nc(-c4cncc(F)c4)ccc3N3CCC[C@H]2C3)ncn1 [Example 404]
Tryp AVG EC1.5 (μM) [3]: A (A (EC1.5<1 μM))

Cc1cc(-c2ccc3c(n2)N(C(=O)Nc2cccnc2)[C@H]2CCN3C2)ccn1 [Example 498]
Tryp AVG EC1.5 (μM) [4]: A (A (EC1.5<1 μM))

Cc1nc(-c2cccc(NC(=O)N3c4nc(-c5cccc(C(F)(F)F)c5)ccc4N4CC[C@H]3C4)c2)cs1 [Example 583]
Tryp AVG EC1.5 (μM) [4]: A (A (EC1.5<1 μM))

FC(F)(F)c1cccc(-c2ccc3c(n2)N(C(=S)Nc2cccc(-c4cnco4)c2)[C@H]2CCN3C2)c1 [Example 763]
Tryp AVG EC1.5 (μM) [2]: A (A (EC1.5<1 μM))

O=C(Nc1cncnc1)N1c2nc(-c3ccnc(C(F)(F)F)c3)ccc2N2CCC[C@H]1C2 [(9S)-N-(pyrimidin-5-yl)-5-[2-(trifluoromethyl)pyridin-4-yl]-1,6,8-triazatricyclo[7.3.1.0 {2,7}]trideca-2(7),3,5-triene-8-carboxamide]
TRP Activity (EC1.5) (Trp peptide assay): A (A (EC1.5<1 μM))
Emax [1]: > 150%

Cc1cc(-c2ccc3c(n2)N(C(=O)Nc2cncnc2)[C@H]2CCCN3C2)ccn1 [(9S)-5-(2-methylpyridin-4-yl)-N-(pyrimidin-5-yl)-1,6,8-triazatricyclo[7.3.1.0 {2,7}]trideca-2(7),3,5-triene-8-carboxamide]
TRP Activity (EC1.5) (Trp peptide assay): B (B (EC1.5 1-25 μM))
Emax [1]: > 150%

Cc1ccc(-c2ccc3c(n2)N(C(=O)Nc2ccnc(O[C@H]4CCOC4)n2)[C@H]2CCN3C2)cn1 [(9S)-5-(6-methylpyridin-3-yl)-N-{2-[(3S)-oxolan-3-yloxy]pyrimidin-4-yl}-1,6,8-triazatricyclo[7.2.1.0 {2,7}]dodeca-2,4,6-triene-8-carboxamide]
TRP Activity (EC1.5) (Trp peptide assay): B (B (EC1.5 1-25 μM))
Emax [1]: > 150%

CC(=O)NCc1ccc(NC(=O)N2c3nc(-c4cccc(C(F)(F)F)c4)ccc3N3CCC[C@H]2C3)cc1 [Example 790]
Tryp AVG EC1.5 (μM) [2]: A (A (EC1.5<1 μM))

O=C(Nc1cccnc1)N1c2nc(-c3cccc(C(F)(F)F)c3)ccc2N2C[C@@H](O)[C@H]1C2 [Example 663]
Tryp AVG EC1.5 (μM) [2]: A (A (EC1.5<1 μM))

NC(=O)c1cncc(-c2ccc3c(n2)N(C(=O)Nc2ccccn2)[C@H]2CCN3C2)c1 [Example 371]
Tryp AVG EC1.5 (μM) [3]: B (B (EC1.5 1-25 μM))

Cc1nc(NC(=O)N2c3nc(-c4cncc(C(F)(F)F)c4)ccc3N3C[C@@H](O)[C@H]2C3)sc1C [Example 697]
Tryp AVG EC1.5 (μM) [2]: B (B (EC1.5 1-25 μM))

O=C(Nc1cccc(-c2cnco2)c1)N1c2nc(N3CCC[C@H](C(F)(F)F)C3)ccc2N2CC[C@H]1C2 [Example 718]
Tryp AVG EC1.5 (μM) [2]: A (A (EC1.5<1 μM))

CS(=O)(=O)Nc1cccc(NC(=O)N2c3nc(-c4cccc(C(F)(F)F)c4)ccc3N3CC[C@H]2C3)c1 [Example 642]
Tryp AVG EC1.5 (μM) [2]: A (A (EC1.5<1 μM))

O=C(Nc1ccncn1)N1c2nc(-c3cccnc3)ccc2N2CCC[C@H]1C2 [Example 456]
Tryp AVG EC1.5 (μM) [4]: B (B (EC1.5 1-25 μM))

O=C(Nc1cc(OC[C@@H](O)CO)ccn1)N1c2nc(-c3cccc(C(F)(F)F)c3)ccc2N2CC[C@H]1C2 [(9S)-N-{4-[(2S)-2,3-dihydroxypropoxy]pyridin-2-yl}-5-[3-(trifluoromethyl)phenyl]-1,6,8-triazatricyclo[7.2.1.0 {2,7}]dodeca-2(7),3,5-triene-8-carboxamide]
TRP Activity (EC1.5) (Trp peptide assay): A (A (EC1.5<1 μM))
Emax [1]: > 150%

O=C(Nc1cccnc1)N1c2nc(-c3ccc(C(F)(F)F)nc3)ccc2N2CC[C@H]1C2 [(9S)-N-(pyridin-3-yl)-5-[6-(trifluoromethyl)pyridin-3-yl]-1,6,8-triazatricyclo[7.2.1.0^{2,7}]dodeca-2(7),3,5-triene-8-carboxamide]
TRP Activity (EC1.5) (Trp peptide assay): B (B (EC1.5 1-25 μM))
Emax [1]: > 150%

O=C(Nc1ccccn1)N1c2nc(-c3ccc(Cl)c(Cl)c3)ccc2N2CC[C@H]1C2 [Example 332]
Tryp AVG EC1.5 (μM) [3]: A (A (EC1.5<1 μM))

O=C(Nc1cnccn1)N1c2nc(-c3cc(C(F)(F)F)cc(C(F)(F)F)c3)ccc2N2CC[C@H]1C2 [Example 363]
Tryp AVG EC1.5 (μM) [3]: B (B (EC1.5 1-25 μM))
Emax [5]: > 150%

O=C(NCc1ccccc1)N1c2nc(-c3cccc(C(F)(F)F)c3)ccc2N2CC[C@H]1C2 [Example 597]
Tryp AVG EC1.5 (μM) [4]: B (B (EC1.5 1-25 μM))

CCCCC(=O)c1cccc(NC(=O)N2c3nc(-c4cccc(C(F)(F)F)c4)ccc3N3CC[C@H]2C3)c1 [Example 737]
Tryp AVG EC1.5 (μM) [2]: A (A (EC1.5<1 μM))
